# Source: patent US12472226B2, “Cell-permeable peptide” (priority 2019, dated 2025)
# Non-standard residues stand in square brackets, D forms with d. No end group written: not given here. *: point of attachment. FITC = O=C1OC2(c3ccc(O)cc3Oc3cc(O)ccc32)c2ccc(NC(=S)*)cc21; Ahx = NCCCCCC(=O)O
# How the values were obtained:
# CD13 = target: T1, CD13 (Homo sapiens, UniProt P15144); assay: Analytical test of binding protein by immunoprecipitation; conditions: HT-1080 cells, 80 μg/400 μL, 4° C., 2 hours
# T1 construct: endogenous in cells; host or cells: HT-1080 cells
# T1 sequence (P15144 whole entry): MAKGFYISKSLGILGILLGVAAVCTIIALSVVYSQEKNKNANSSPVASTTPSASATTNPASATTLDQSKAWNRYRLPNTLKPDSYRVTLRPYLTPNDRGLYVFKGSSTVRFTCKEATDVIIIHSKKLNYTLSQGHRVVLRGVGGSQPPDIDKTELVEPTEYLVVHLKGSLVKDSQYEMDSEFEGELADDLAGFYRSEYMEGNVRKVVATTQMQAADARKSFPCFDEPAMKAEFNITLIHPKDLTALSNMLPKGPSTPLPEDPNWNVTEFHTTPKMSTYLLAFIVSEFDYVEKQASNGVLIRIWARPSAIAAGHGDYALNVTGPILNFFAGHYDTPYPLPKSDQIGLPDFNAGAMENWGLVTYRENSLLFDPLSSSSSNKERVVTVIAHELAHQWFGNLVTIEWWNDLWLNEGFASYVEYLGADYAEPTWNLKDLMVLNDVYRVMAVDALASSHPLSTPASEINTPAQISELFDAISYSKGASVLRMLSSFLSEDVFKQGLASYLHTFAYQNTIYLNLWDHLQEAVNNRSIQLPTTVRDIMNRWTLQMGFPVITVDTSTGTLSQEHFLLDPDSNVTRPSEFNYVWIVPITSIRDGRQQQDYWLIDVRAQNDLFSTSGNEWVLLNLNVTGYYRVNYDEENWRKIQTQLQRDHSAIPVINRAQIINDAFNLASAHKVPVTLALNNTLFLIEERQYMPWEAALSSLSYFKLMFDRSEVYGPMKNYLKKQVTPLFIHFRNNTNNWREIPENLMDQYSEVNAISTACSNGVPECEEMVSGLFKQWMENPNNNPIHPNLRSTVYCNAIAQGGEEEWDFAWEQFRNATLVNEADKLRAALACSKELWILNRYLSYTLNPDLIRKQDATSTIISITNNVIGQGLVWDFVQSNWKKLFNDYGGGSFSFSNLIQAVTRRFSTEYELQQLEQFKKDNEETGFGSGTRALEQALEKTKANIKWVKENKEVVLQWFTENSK
# Experimental: Example 2 (80 μg/400 μL) reacted to HT-1080 cells (40 million cells) at 4° C. for 2 hours. The cells were then washed with PBS, and centrifuged. The centrifuged cells were dissolved in 1,000 μL of IP Lysis/Wash buffer (Thermo Fisher Scientific) with Halt Protease & Phosphatase inhibitor Single-Use Cocktail, ETDA-Free (Thermo Fisher Scientific) (10 μL) at 4° C. for 5 minutes. It was centrifuged at 4° C. for 10 minutes and the supernatant was collected. The supernatant was adjusted to be 1 mg in amount of protein and 80 μL of A/G agarose was added to it. The mixture was stirred at 4° C. for 1 hour and then centrifuged for 1 minute. Thus, a pre-treatment solution was obtained. 10 μg of IgG Fraction Monoclonal Mouse Anti-Fluorescein (FITC) (Jackson ImmunoResearch) or 10 μg of Mouse IgG Isotype Control (Thermo Fisher Scientific) was each added to the pre-treatment solution (1 mg/600 μL), and the mixtures were shaken at 4° C. overnight. Subsequently, 20 μL of A/G agarose was added and the mixtures were shaken at 4° C. for 2 hours. The mixtures were washed three times with the wash buffer described above and 20 μL of 2×Non-reducing Lane Marker Sample Buffer (Thermo Fisher Scientific) was added to the A/G agaroses. […]
# The 10% solution used in immunoprecipitation was loaded to the left lane of FIG. 3. […] CD13 was not detected on the right lane, but CD 13 was detected on the center lane.
# HuH7 cells = assay: Test of inducing cell-death in vitro (Calcein-AM/PI dead cell rate); type: cell-based, human
# Description: (§1) Human fibrosarcoma-derived HT-1080 cells (HT-1080 cells, JCRB cell bank) were used as cancer cells in the test for monitoring changes in mitochondrial membrane potential. HT-1080 cells, human osteosarcoma cell line Hos cells (Hos cells, JCRB cell bank), human histiocytic lymphoma/macrophage U937 cells (U937 cells, JCRB cell bank), human myeloid leukemia HL-60 cells (HL-60 cells, JCRB cell bank), acute monocytic leukemia THP-1 cells (THP-1 cells, JCRB cell bank), human alveolar basal epithelial adenocarcinoma cell A549 cells (A549 cells, Cell Resource Center for Biomedical Research, Institute of Development, Aging and Cancer, Tohoku University), human pancreatic carcinoma cells (MIA Paca 2 cells, Cell Resource Center for Biomedical Research, Institute of Development, Aging and Cancer, Tohoku University) and well differentiated human liver carcinoma-derived cell line HuH7 cells (HuH7 cells, Cell Resource Center for Biomedical Research, Institute of Development, Aging and Cancer, Tohoku University) were used as cancer cells in an in vitro cell-death induction test of cancer cells and a nuclear transport test of Example 2. Normal human gingival fibroblast cells Gin-1 (Gin-1 cells, DS Pharma Biomedical) were used as a control. The above-described cells were each inoculated into a 96-well culture plate (Falcon) at 5,000 cells/[…] and subjected to the following tests.
# (§2) The peptide of SEQ ID NO: 1 labeled with FITC (Example 2) was used for the test of inducing cell-death in vitro in cancer cells. It was prepared the test example to which 100 μL of Example 2 and further 10% FBS were added and cultured for 9 days under conditions of 200 μL of serum-supplemented medium (Alpha modification of Eagle's MEM (α-MEM) (Thermo Fisher Scientific)+10% FBS). Furthermore, it was also produced the test example that was cultured for 21 days with the whole amount of Example 2-supplemented medium replaced every 7 days. As a control, the cells were cultured in a serum-supplemented medium (α-MEM+10% FBS) without addition and were used. A supernatant was removed after the completion of the culture. The cells were washed once with PBS and stained in PBS to which a fluorescent dye for living cell staining Calcein-AM (DOJINDO LABORATORIES) (final concentration: 0.1 μg/mL) and a fluorescent dye for dead cell staining Propidium Iodide (PI) (DOJINDO LABORATORIES) (final concentration: 0.3 μg/mL) were added, at 37° C. in a 5% CO2 cell incubator for 30 minutes. The living cells and dead cells were separately stained with Calcein-AM and PI, respectively and imaged with the confocal laser scanning microscope LSM800. Next, the dead cell rate relative to the number of total cells was analyzed using ImageJ.
# (§3) The amount of administration of Example 2 was adjusted to 50 μg/mL and was used for 9-, 16- or 23-day administration test in the A549, MIA Paca2 or HuH7 cells by the same method as in Test Example 2A above. The cell staining and subsequent analyses of the dead cell rate relative to the number of total cells were performed in the same manner as Test Example 2A above.
# A549 cells = assay: as above; type: cell-based, human; conditions: for dead cell rate: 50 μg/mL
# Description: as §1, §2, §3
# MIA Paca2 cells = assay: as above; type: cell-based, human; conditions: for dead cell rate: 50 μg/mL
# Description: as §1, §2, §3
# Gin-1 cells = assay: Test on nuclear transport (confocal Z scan, DAPI); type: cell-based, human; conditions: 50 μg/mL, 9 days
# Description: as §1
# (§4) Further, 50 μg/mL of Example 2 was added to the Gin-1 or above cancer cells. The cells were cultured for 9 days and scanned with Z scan technique using the confocal laser scanning microscope LSM800 after dyed with DAPI. FIG. 5A is each photograph of XY, XZ and YZ cross sections that was merged with Example 2 (green) and DAPI (blue) in the Gin-1 or above-described cancer cells. […] The color of the images merged with the Example 2 and DAPI dye took on light blue in the U937, H1-60, THP-1 and Hos cells.
# THP-1 cells = assay: Test on nuclear transport (confocal Z scan, DAPI); type: cell-based, human; conditions: 50 μg/mL, 9 days
# Description: as §1, §4
# Hos cells = assay: Test on nuclear transport (confocal Z scan, DAPI); type: cell-based, human; conditions: 50 μg/mL, 9 days
# Description: as §1, §4
# HL-60 cells = assay: Test on nuclear transport (confocal Z scan, DAPI); type: cell-based, human; conditions: H1-60 cells, 50 μg/mL, 9 days
# Description: as §1, §4
# U937 cells = assay: Test on nuclear transport (confocal Z scan, DAPI); type: cell-based, human; conditions: 50 μg/mL, 9 days
# Description: as §1, §4
substance,measurement,setting,value
"Example 2: peptide of SEQ ID NO: 1 labeled with FITC, bound via an Ahx linker at the N-terminus ({FITC}-[Ahx]KDNRGNLLQCVCTGNGRGEWKC; cysteine pairing not given here)","binding to CD13 (co-immunoprecipitation with anti-FITC, Western blotting)",CD13,proved to bind to CD13 on a cell membrane specifically
same,effect of administration (dead cell rate) on day 9 compared with later days,HuH7 cells; 50 μg/mL,substantially same as that of days 16 and 23
same,increase in the dead cell rate vs control,"HuH7 cells; 50 μg/mL, 9, 16 or 23 days",significant difference was recognized at the level of 1%
same,increase in the dead cell rate vs control,"A549 cells; 50 μg/mL, 9, 16 or 23 days",significant difference was recognized at the level of 1%
same,dead cell rate,A549 cells; day 9,~50%
same,dead cell rate,A549 cells; day 16,~60%
same,dead cell rate,A549 cells; day 21,≥ 80%
same,increase in the dead cell rate vs control,"MIA Paca2 cells; 50 μg/mL, 9, 16 or 23 days",significant difference was recognized at the level of 1%
same,dead cell rate,MIA Paca2 cells; day 9,about 10%
same,dead cell rate,MIA Paca2 cells; day 16,~50%
same,dead cell rate,MIA Paca2 cells; day 23,about 80%
same,intracellular localization,Gin-1 cells,remain still in the cytoplasm
same,intracellular localization,THP-1 cells,transfer to a nucleus and bind to a chromosome DNA
same,intracellular localization,Hos cells,transfer to a nucleus and bind to a chromosome DNA
same,intracellular localization,HL-60 cells,transfer to a nucleus and bind to a chromosome DNA
same,intracellular localization,U937 cells,transfer to a nucleus and bind to a chromosome DNA
